Here are results for 2 molecules from patent US11786513B2, “Compositions comprising berberine” (INDENA S.P.A., priority 2018, dated 2023).

The conditions of data set [1]: oral administration; cited from earlier work.
A short description of data set [2]: Solubility test in simulated biological fluids (FaSSGF), UPLC. The note with it: Fasted-State Simulated Gastric Fluid (FaSSGF), fassgf or other biorelevant, thermodynamic from solid, pH 1.6, samples containing equal amounts of BBR. In kind it is physicochemical. As to the method:
The solubility test was conducted by comparing samples containing equal amounts of BBR. […] The analysis was conducted by the UPLC (Ultra High Performance Liquid Chromatography) method described below: ANALYSIS CONDITIONS: Flow rate: 0.4 ml/minute; Detection: 348 nm. SAMPLE SOLUTION: 30 mg in 200 ml (Chromatogram of a typical sample of ˜0.15 mg/ml, in FIG. 1). STANDARD SOLUTION: 10 mg of pure reference BBR in 200 ml of methanol (Standard solution ˜0.05 mg/ml, typical chromatogram in FIG. 2). The solubility test was conducted using Fasted-State Simulated Gastric Fluid (FaSSGF), prepared as reported below, as solvent. 1) Preparation of an NaCl/HCl solution for FaSSGF (1 litre): 2 g of NaCl was dissolved in […] of purified water, the pH was adjusted to 1.6 with HCl, and the mixture was made up to volume with purified water (1 litre). 2) 0.06 g of powder* (FaSSGF—Biorelevant media) was added to about 500 ml of the NaCl/HCl solution at room temperature and made up to volume (1 l) with the NaCl/HCl solution to obtain a clear, ready-for-use liquid. *Final sodium taurocholate 0.08 mM, final lecithin 0.02 mM

On to `COc1ccc2cc3[n+](cc2c1OC)CCc1cc2c(cc1-3)OCO2` [BBR, Berberine], for which, in data set [1], the “fraction which reaches the systemic circulation” value is listed as 0.36% and the oral absorption is recorded as ≤ 0.5 % of the administered dose.

As a reminder, the solubility is the concentration that dissolves in the medium under given conditions. Higher therefore signals much dissolved substance. On to `COc1ccc2cc3[n+](cc2c1OC)CCc1cc2c(cc1-3)OCO2` [Reference 1, berberine], for which, in data set [2], the solubility was 113 µg/mL.
